ChEMBL document CHEMBL6182865, “Discovery of potent free fatty acid receptor 1 full agonists with a novel scaffold bearing conjugated double bond linker” (Bioorg Med Chem, 2025)
The source made the active and inactive calls. The rule behind the calls is not given here.

Key:
[1] = target: T1, Free fatty acid receptor 1 (Homo sapiens, UniProt O14842); assay: Agonist activity at GPR40 (unknown origin) expressed in HEK293 cells assessed as intracellular cAMP level incubated for 30 mins by LANCE Ultra cAMP kit based multiplate reader analysis; format: functional, cell-based
Mus musculus [2] = assay: Hypoglycemic effect in male C57BL/6 mouse assessed as reduction in blood glucose level at 30 mg/kg, po preadministered with compound for 60 mins followed by glucose administration at 0 hrs and measured up to 90 mins by oral glucose tolerance test; format: functional, organism-based; details: time <= 150.0 min
Mus musculus [3] = assay: Hypoglycemic effect in male C57BL/6 mouse assessed as reduction in blood glucose level at 10 mg/kg, po preadministered with compound for 60 mins followed by glucose administration at 0 hrs and measured up to 90 mins by oral glucose tolerance test; format: functional, organism-based; details: time <= […] min
[4] = target: T1, Free fatty acid receptor 1; assay: Agonist activity at GPR40 (unknown origin) expressed in HEK293 cells assessed as intracellular inositol phosphate accumulation incubated for 30 mins by IP-one HTRF analysis; format: functional, cell-based
Mus musculus [5] = assay: Hypoglycemic effect in male po dosed C57BL/6 mouse preadministered with compound for 60 mins followed by glucose administration at 0 hrs and measured up to 90 mins by oral glucose tolerance test; format: functional, organism-based; details: dose 3-30 mg/kg, time <= 150.0 min
[6] = target: T1, Free fatty acid receptor 1; assay: Partial agonist activity at GPR40 (unknown origin) expressed in HEK293 cells assessed as intracellular inositol phosphate accumulation by measuring maximum efficacy incubated for 30 mins by IP-one HTRF analysis relative to control; format: functional, cell-based; details: filed as partial agonist
Mus musculus [7] = assay: Hypoglycemic effect in male C57BL/6 mouse assessed as reduction in blood glucose level at 3 mg/kg, po preadministered with compound for 60 mins followed by glucose administration at 0 hrs and measured up to 90 mins by oral glucose tolerance test; format: functional, organism-based; details: time <= 150.0 min

T1 sequence (O14842 whole entry): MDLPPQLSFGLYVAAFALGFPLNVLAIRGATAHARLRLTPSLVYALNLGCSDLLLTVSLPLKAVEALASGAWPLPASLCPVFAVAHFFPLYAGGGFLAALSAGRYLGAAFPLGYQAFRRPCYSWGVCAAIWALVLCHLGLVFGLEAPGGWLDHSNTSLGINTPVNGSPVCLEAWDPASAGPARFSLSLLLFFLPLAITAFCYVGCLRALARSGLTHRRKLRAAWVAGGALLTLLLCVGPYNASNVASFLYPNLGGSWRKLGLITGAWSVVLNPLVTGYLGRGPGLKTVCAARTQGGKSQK

EC50 [1] | EC50 [4] | SMILES | also measured
0.261 µM | 0.00323 µM | COc1ccc(OCCC(C)(C)C)c(/C=C(C)/C=C/COc2cccc([C@H](C3CC3)[C@@](C)(F)C(=O)O)c2)c1 | Activity (Mus musculus [2]): Active; Compound Showed Better Effect Compared With Standard Drug(Sco-267); Activity (Mus musculus [3]): Active; Activity (Mus musculus [5]): Dose-dependent-effect
– | – | Cc1cc(OCCCS(C)(=O)=O)cc(C)c1-c1cccc(COc2ccc3c(c2)OC[C@H]3CC(=O)O)c1 | Emax [6]: 77.8%
> 10 µM | 1.36 µM | COc1cc(/C=C(C)/C=C/COc2cccc(C(CC(=O)O)C3CC3)c2)cc(OCc2ccc(Cl)cc2F)c1 (stereo not drawn) | –
> 10 µM | > 10 µM | COc1ccc(F)c(CCCOc2cccc(C(CC(=O)O)C3CC3)c2)c1 (stereo not drawn) | –
> 10 µM | 0.367 µM | COc1ccc(OCC2CC2)c(/C=C(C)/C=C/COc2cccc(C(CC(=O)O)C3CC3)c2)c1 (stereo not drawn) | –
> 10 µM | > 10 µM | COc1ccc(F)c(CCCCCCOc2cccc(C(CC(=O)O)C3CC3)c2)c1 (stereo not drawn) | –
> 10 µM | 0.204 µM | COc1ccc(OCc2ccccc2)c(/C=C(C)/C=C/COc2cccc(C(CC(=O)O)C3CC3)c2)c1 (stereo not drawn) | –
> 10 µM | 0.943 µM | COc1cc(/C=C(C)/C=C/COc2cccc(C(CC(=O)O)C3CC3)c2)cc(OCCC(C)(C)C)c1 (stereo not drawn) | –
> 10 µM | 1.77 µM | COc1ccc(F)c(/C=C/C=C/COc2cccc(C(CC(=O)O)C3CC3)c2)c1 (stereo not drawn) | –
> 10 µM | 0.894 µM | COc1ccc(OC)c(/C=C(C)/C=C/COc2cccc(C(CC(=O)O)C3CC3)c2)c1 (stereo not drawn) | –
6.87 µM | 0.134 µM | COc1ccc(OCCCC(C)C)c(/C=C(C)/C=C/COc2cccc(C(CC(=O)O)C3CC3)c2)c1 (stereo not drawn) | –
> 10 µM | 6.7 µM | COc1ccc(F)c(CCCCOc2cccc(C(CC(=O)O)C3CC3)c2)c1 (stereo not drawn) | –
0.0879 µM | 0.00111 µM | COc1ccc(C(=O)N(CC(C)(C)C)c2cccc(C)n2)c(N2CCC(COc3cc([C@@H](CC(=O)O)C4CC4)ccn3)CC2)c1 | Activity (Mus musculus [7]): Active
> 10 µM | 1.05 µM | COc1ccc(OCCC(C)(C)C)c(/C=C(C)/C=C/COc2cccc([C@H](C3CC3)[C@](C)(F)C(=O)O)c2)c1 | –
> 10 µM | 0.364 µM | CCCOc1ccc(OC)cc1/C=C(C)/C=C/COc1cccc(C(CC(=O)O)C2CC2)c1 (stereo not drawn) | –
